Results published in patent US20260116868A1 (Arcus Biosciences, Inc., priority 2023, published 2026).

These molecules were tested against T1, Cbl-b (Homo sapiens, UniProt Q13191) (assay: Cbl-b probe displacement HTRF binding assay). Conditions: 0.4 nM Cbl-b, 150 nM BODIPY probe.
T1 construct: biotin (biotinylated protein)
In short: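 Binding IC50 from four-parameter fit of HTRF signal loss, normalised to DMSO (0%) and no-protein (100%) wells. Biotinylated Cbl-b 0.4 nM was preincubated 60 min with compound (20-point 1:2 dilution) before 15 min with 150 nM BODIPY probe; Tb-streptavidin detection.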

T1 sequence (Q13191 whole entry, species assumed): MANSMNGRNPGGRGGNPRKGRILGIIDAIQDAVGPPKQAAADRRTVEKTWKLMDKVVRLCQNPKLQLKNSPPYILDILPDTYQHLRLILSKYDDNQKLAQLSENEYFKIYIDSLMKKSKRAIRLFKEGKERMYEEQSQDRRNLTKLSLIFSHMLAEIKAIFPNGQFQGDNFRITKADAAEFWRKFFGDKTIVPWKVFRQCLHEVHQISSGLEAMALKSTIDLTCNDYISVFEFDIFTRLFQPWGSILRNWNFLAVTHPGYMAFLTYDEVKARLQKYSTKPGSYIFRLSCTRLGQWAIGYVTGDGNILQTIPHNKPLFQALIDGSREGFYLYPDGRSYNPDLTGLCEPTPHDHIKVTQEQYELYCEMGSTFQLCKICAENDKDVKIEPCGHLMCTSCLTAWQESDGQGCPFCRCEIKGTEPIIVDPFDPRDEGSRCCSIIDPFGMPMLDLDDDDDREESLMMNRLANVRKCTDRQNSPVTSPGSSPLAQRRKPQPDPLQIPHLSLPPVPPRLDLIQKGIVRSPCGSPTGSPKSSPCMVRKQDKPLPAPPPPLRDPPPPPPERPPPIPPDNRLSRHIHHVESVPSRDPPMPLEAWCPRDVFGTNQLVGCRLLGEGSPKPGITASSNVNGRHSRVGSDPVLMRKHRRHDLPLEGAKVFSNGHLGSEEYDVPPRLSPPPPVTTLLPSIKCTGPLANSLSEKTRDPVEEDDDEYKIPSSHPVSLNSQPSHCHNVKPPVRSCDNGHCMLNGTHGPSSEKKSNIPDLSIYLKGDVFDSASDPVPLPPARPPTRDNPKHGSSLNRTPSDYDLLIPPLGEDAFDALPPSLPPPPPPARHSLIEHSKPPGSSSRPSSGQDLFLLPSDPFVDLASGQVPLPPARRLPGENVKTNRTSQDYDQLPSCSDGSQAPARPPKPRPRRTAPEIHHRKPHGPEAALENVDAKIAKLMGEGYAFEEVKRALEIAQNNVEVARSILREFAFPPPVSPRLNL

SMILES	IC50
CC(C)Oc1cc(-c2ccc(Cl)cc2C(=O)N2CC(F)C2)cc(NC(=O)c2cc(CN[C@@H](C)C3CCC3)cn(C3CC3)c2=O)n1 [Example 256]	< 100 nM
CCOc1cc(-c2ccc(OC(F)F)cc2C(=O)N2CC(F)C2)cc(NC(=O)c2cc(CN[C@@H](C)C3CCC3)cn(C)c2=O)n1 [Example 257]	< 100 nM
CO[C@@H](C)CNCc1cc(C(=O)Nc2cc(-c3ccc(Cl)cc3C(=O)N3CC(F)C3)cc(NC(C)C)n2)c(=O)n(C2CC2)c1 [Example 258]	< 100 nM
CO[C@@H](C)[C@H](C)NCc1cc(C(=O)Nc2cc(-c3ccc(Cl)cc3C(=O)N3CC(F)C3)cc(OC(C)C)n2)c(=O)n(C2CC2)c1 [Example 259]	< 100 nM
COc1ccc(-c2cc(NC(=O)c3cc(CN[C@@H](C)C4CCC4)cn(C4CC4)c3=O)nc(C3CC3)c2)c(C(=O)N2CC(F)C2)c1 [Example 260]	< 100 nM
COc1ccc(-c2cc(NC(=O)c3cc(CNC[C@H](C)OC)cn(C4CC4)c3=O)nc(OC(C)C)c2)c(C(=O)N2CC(F)C2)c1 [Example 261]	< 100 nM
C[C@H](NCc1cc(C(=O)Nc2cc(-c3ccc(OC(F)F)cc3C(=O)N3CC(F)C3)cc(OC3CC3)n2)c(=O)n(C)c1)C1CCC1 [Example 262]	< 100 nM
CO[C@@H](C)CNCc1cc(C(=O)Nc2cc(-c3ccc(OC(F)F)cc3C(=O)N3CC(F)C3)cc(OC(C)C)n2)c(=O)n(C)c1 [Example 263]	< 100 nM
CC(C)Oc1cc(-c2ccc(Cl)cc2C(=O)N2CC(F)C2)cc(NC(=O)c2cc(CN[C@@H](C)C3CC3)cn(C3CC3)c2=O)n1 [Example 264]	< 100 nM
CO[C@@H](C)CNCc1cc(C(=O)Nc2cc(-c3ccc(C#N)cc3C(=O)N3CC(F)C3)cc(OC(C)C)n2)c(=O)n(C)c1 [Example 265]	< 100 nM
CCOc1cc(-c2ccc(OC(F)F)cc2C(=O)N2CC(F)C2)cc(NC(=O)c2cc(CNC[C@@H]3CCCO3)cn(C3CC3)c2=O)n1 [Example 266]	< 100 nM
CC(C)CNCc1cc(C(=O)Nc2cc(-c3ccc(OC(F)F)cc3C(=O)N3CC(F)C3)cc(OC(C)C)n2)c(=O)n(C2CC2)c1 [Example 267]	< 100 nM
CCOc1cc(-c2ccc(OC(F)F)cc2C(=O)N2CC(F)C2)cc(NC(=O)c2cc(CNCC(C)C)cn(C3CC3)c2=O)n1 [Example 268]	< 100 nM
COc1ccc(-c2cc(NC(=O)c3cc(CN[C@@H](C)[C@H](C)OC)cn(C4CC4)c3=O)nc(C3CC3)c2)c(C(=O)N2CC(F)C2)c1 [Example 269]	< 100 nM
COc1ccc(-c2cc(NC(=O)c3cc(CNC[C@H](C)OC)cn(C4CC4)c3=O)nc(C3CC3)c2)c(C(=O)N2CC(F)C2)c1 [Example 270]	< 100 nM
CC(C)Oc1cc(-c2ccc(Cl)cc2C(=O)N2CC(F)C2)cc(NC(=O)c2cc(CNC[C@@H]3CCCO3)cn(C3CC3)c2=O)n1 [Example 271]	< 100 nM
CC(C)CNCc1cc(C(=O)Nc2cc(-c3ccc(C#N)cc3C(=O)N3CC(F)C3)cc(OC(C)C)n2)c(=O)n(C)c1 [Example 272]	< 100 nM
CO[C@@H](C)CNCc1cc(C(=O)Nc2cc(-c3ccc(C)cc3C(=O)N3CC(F)(F)C3)cc(C3CC3)n2)c(=O)n(C2CC2)c1 [Example 273]	< 100 nM
COc1ccc(-c2cc(NC(=O)c3cc(CN[C@@H](C)C4CCC4)cn(C)c3=O)nc(OC(C)C)c2)c(C(=O)N2CC(F)C2)c1 [Example 274]	< 100 nM
CCOc1cc(-c2ccc(OC(F)F)cc2C(=O)N2CC(F)C2)cc(NC(=O)c2cc(CNC[C@H](C)OC)cn(C)c2=O)n1 [Example 275]	< 100 nM

SMILES	IC50
COc1ccc(-c2cc(NC(=O)c3cc(CN[C@@H](C)C4CCC4)cn(C4CC4)c3=O)nc(OC(C)C)c2)c(C(=O)N2CC(F)(F)C2)c1 [Example 276]	< 100 nM
Cc1ccc(-c2cc(NC(=O)c3cc(CN[C@@H](C)C4CCC4)cn(C4CC4)c3=O)nc(OC(C)C)c2)c(C(=O)N2CC(F)C2)c1 [Example 277]	< 100 nM
CC(C)Nc1cc(-c2ccc(OC(F)F)cc2C(=O)N2CC(F)C2)cc(NC(=O)c2cc(CN[C@@H](C)C3CCC3)cn(C)c2=O)n1 [Example 278]	< 100 nM
CC(C)Oc1cc(-c2ccc(C#N)cc2C(=O)N2CC(F)C2)cc(NC(=O)c2cc(CNC[C@@H]3CCCO3)cn(C)c2=O)n1 [Example 279]	< 100 nM
CC(C)Oc1cc(-c2ccc(OC(F)F)cc2C(=O)N2CC(F)C2)cc(NC(=O)c2cc(CNC[C@@H]3CCCO3)cn(C3CC3)c2=O)n1 [Example 280]	< 100 nM
COc1ccc(-c2cc(NC(=O)c3cc(CNCC(C)C)cn(C4CC4)c3=O)nc(OC(C)C)c2)c(C(=O)N2CC(F)C2)c1 [Example 281]	< 100 nM
CCOc1cc(-c2ccc(OC(F)F)cc2C(=O)N2CC(F)C2)cc(NC(=O)c2cc(CNC[C@@H]3CCCO3)cn(C)c2=O)n1 [Example 282]	< 100 nM
COc1ccc(-c2cc(NC(=O)c3cc(CNC[C@@H]4CCCO4)cn(C4CC4)c3=O)nc(OC(C)C)c2)c(C(=O)N2CC(F)C2)c1 [Example 283]	< 100 nM
COc1ccc(-c2cc(NC(=O)c3cc(CNCC(C)C)cn(C4CC4)c3=O)nc(C3CC3)c2)c(C(=O)N2CC(F)C2)c1 [Example 284]	< 100 nM
COCCNCc1cc(C(=O)Nc2cc(-c3ccc(Cl)cc3C(=O)N3CC(F)C3)cc(C3CC3)n2)c(=O)n(C2CC2)c1 [Example 285]	< 100 nM
CCOc1cc(-c2ccc(OC(F)F)cc2C(=O)N2CC(F)C2)cc(NC(=O)c2cc(CNCC(C)C)cn(C)c2=O)n1 [Example 286]	< 100 nM
Cc1ccc(-c2cc(NC(=O)c3cc(CNCC(C)C)cn(C4CC4)c3=O)nc(OC(C)C)c2)c(C(=O)N2CC(F)C2)c1 [Example 287]	< 100 nM
COc1ccc(-c2cc(NC(=O)c3cc(CNC[C@@H]4CCCO4)cn(C4CC4)c3=O)nc(C3CC3)c2)c(C(=O)N2CC(F)C2)c1 [Example 288]	< 100 nM
COc1ccc(-c2cc(NC(=O)c3cc(CNCC(C)C)cn(C4CC4)c3=O)nc(OC(C)C)c2)c(C(=O)N2CC(F)(F)C2)c1 [Example 289]	< 100 nM
CO[C@@H](C)CNCc1cc(C(=O)Nc2cc(-c3ccc(C)cc3C(=O)N3CC(F)C3)cc(OC(C)C)n2)c(=O)n(C2CC2)c1 [Example 290]	< 100 nM
COc1ccc(-c2cc(NC(=O)c3cc(CN[C@@H](C)C4CC4)cn(C4CC4)c3=O)nc(C3CC3)c2)c(C(=O)N2CC(F)C2)c1 [Example 291]	< 100 nM
COc1ccc(-c2cc(NC(=O)c3cc(CN[C@@H](C)C4CCC4)cn(C)c3=O)nc(OC(C)C)c2)c(C(=O)N2CC(F)(F)C2)c1 [Example 292]	< 100 nM
CC(C)Oc1cc(-c2ccc(OC(F)F)cc2C(=O)N2CC(F)(F)C2)cc(NC(=O)c2cc(CN[C@@H](C)C(C)C)cn(C3CC3)c2=O)n1 [Example 293]	< 100 nM
CC(C)CNCc1cc(C(=O)Nc2cc(-c3ccc(OC(F)F)cc3C(=O)N3CC(F)C3)cc(OC(C)C)n2)c(=O)n(C)c1 [Example 294]	< 100 nM
COc1ccc(-c2cc(NC(=O)c3cc(CN[C@@H](C)C4CCC4)cn(C4CC4)c3=O)nc(C3CC3)c2)c(C(=O)N2CC(F)(F)C2)c1 [Example 295]	< 100 nM

SMILES	IC50
COc1ccc(-c2cc(NC(=O)c3cc(CN[C@@H](C)C4CCC4)cn(C)c3=O)nc(C3CC3)c2)c(C(=O)N2CC(F)C2)c1 [Example 296]	< 100 nM
CC(C)Oc1cc(-c2ccc(OC(F)F)cc2C(=O)N2CC(F)C2)cc(NC(=O)c2cc(CNC[C@@H]3CCCO3)cn(C)c2=O)n1 [Example 297]	< 100 nM
COCCNCc1cc(C(=O)Nc2cc(-c3ccc(Cl)cc3C(=O)N3CCC3)cc(C3CC3)n2)c(=O)n(C2CC2)c1 [Example 298]	< 100 nM
CC(C)Nc1cc(-c2ccc(OC(F)F)cc2C(=O)N2CC(F)C2)cc(NC(=O)c2cc(CNC[C@@H]3CCCO3)cn(C)c2=O)n1 [Example 299]	< 100 nM
CO[C@@H](C)CNCc1cc(C(=O)Nc2cc(-c3ccc(C(F)F)cc3C(=O)N3CC(F)(F)C3)cc(C3CC3)n2)c(=O)n(C2CC2)c1 [Example 300]	< 100 nM
COc1ccc(-c2cc(NC(=O)c3cc(CNC[C@H](C)OC)cn(C)c3=O)nc(C3CC3)c2)c(C(=O)N2CC(F)C2)c1 [Example 301]	< 100 nM
COc1ccc(-c2cc(NC(=O)c3cc(CNC[C@H](C)OC)cn(C)c3=O)nc(OC(C)C)c2)c(C(=O)N2CC(F)C2)c1 [Example 302]	< 100 nM
COCCNCc1cc(C(=O)Nc2cc(-c3ccc(Cl)cc3C(=O)N3CC(C#N)C3)cc(C3CC3)n2)c(=O)n(C2CC2)c1 [Example 303]	< 100 nM
Cc1ccc(-c2cc(NC(=O)c3cc(CNC[C@@H]4CCCO4)cn(C4CC4)c3=O)nc(C3CC3)c2)c(C(=O)N2CC(F)(F)C2)c1 [Example 304]	< 100 nM
COc1ccc(-c2cc(NC(=O)c3cc(CNC[C@H](C)OC)cn(C4CC4)c3=O)nc(OC(C)C)c2)c(C(=O)N2CC(F)(F)C2)c1 [Example 305]	< 100 nM
COCCNCc1cc(C(=O)Nc2cc(-c3ccc(Cl)cc3C(=O)N3CC4(COC4)C3)cc(C3CC3)n2)c(=O)n(C2CC2)c1 [Example 306]	< 100 nM
COCCNCc1cc(C(=O)Nc2cc(-c3ccc(Cl)cc3C(=O)N(C)C)cc(C3CC3)n2)c(=O)n(C2CC2)c1 [Example 307]	< 100 nM
COc1ccc(-c2cc(NC(=O)c3cc(CNC[C@H](C)OC)cn(C)c3=O)nc(OC(C)C)c2)c(C(=O)N2CC(F)(F)C2)c1 [Example 308]	< 100 nM
Cc1ccc(-c2cc(NC(=O)c3cc(CNC[C@@H]4CCCO4)cn(C4CC4)c3=O)nc(OC(C)C)c2)c(C(=O)N2CC(F)C2)c1 [Example 309]	< 100 nM
CC(C)CNCc1cc(C(=O)Nc2cc(-c3ccc(C(F)F)cc3C(=O)N3CC(F)C3)cc(OC(C)C)n2)c(=O)n(C2CC2)c1 [Example 310]	< 100 nM
COc1ccc(-c2cc(NC(=O)c3cc(CNC[C@@H]4CCCO4)cn(C4CC4)c3=O)nc(OC(C)C)c2)c(C(=O)N2CC(F)(F)C2)c1 [Example 311]	< 100 nM
COc1ccc(-c2cc(NC(=O)c3cc(CN[C@@H](C)C4CC4)cn(C)c3=O)nc(C3CC3)c2)c(C(=O)N2CC(F)C2)c1 [Example 312]	< 100 nM
COc1ccc(-c2cc(NC(=O)c3cc(CN[C@@H](C)[C@H](C)OC)cn(C)c3=O)nc(C3CC3)c2)c(C(=O)N2CC(F)C2)c1 [Example 313]	< 100 nM
